Data published in ChEMBL document CHEMBL3046190, “Acid promoted intramolecular formation of 3,5-anhydro-1,4-furano-7-ulose derivatives via the Wittig-cyclization procedure and their antimicrobial properties” (2013).
In brackets after ≈: the same amount, converted by molar mass. Activity calls are given as the source filed them. The rule behind the calls is not given here.

What was measured:
[1] = test system: Enterococcus faecalis; test: Antimicrobial activity against Enterococcus faecalis ATCC 29212 assessed as growth inhibition at 0.005 to 5 mg/ml after 24-48 hr by broth microdilution technique; assay type: functional, organism-based
[2] = test system: Klebsiella pneumoniae; test: Antimicrobial activity against Klebsiella pneumoniae CCM 2318 assessed as growth inhibition after 24 to 48 hr by broth microdilution technique; assay type: functional
[3] = test system: Pseudomonas aeruginosa; test: Antimicrobial activity against Pseudomonas aeruginosa ATCC 27853 assessed as growth inhibition after 24-48 hr by broth microdilution technique; assay type: functional
[4] = test system: Escherichia coli; test: Antimicrobial activity against Escherichia coli ATCC […] assessed as growth inhibition after 24-48 hr by broth microdilution technique; assay type: functional
[5] = test system: Candida albicans; test: Antimicrobial activity against Candida albicans ATCC 10239 assessed as growth inhibition after 24-48 hr by broth microdilution technique; assay type: functional
[6] = test system: Salmonella typhimurium; test: Antimicrobial activity against Salmonella enterica subsp. enterica serovar Typhimurium CCM 5445 assessed as growth inhibition after 24-48 hr by broth microdilution technique; assay type: functional
[7] = test system: Staphylococcus aureus; test: Antimicrobial activity against Staphylococcus aureus ATCC 6538-P assessed as growth inhibition after 24-48 hr by broth microdilution technique; assay type: functional
[8] = test system: Bacillus subtilis; test: Antimicrobial activity against Bacillus subtilis ATCC 6633 assessed as growth inhibition after 24-48 hr by broth microdilution technique; assay type: functional

| MIC [2] | MIC [3] | MIC [4] | MIC [5] | MIC [6] | MIC [7] | MIC [8] | Structure (SMILES) | growth inhibition (GI) [1] |
| --- | --- | --- | --- | --- | --- | --- | --- | --- |
| inactive | inactive | inactive | inactive | inactive | inactive | inactive | COC(C)(CC1O[C@@H]2[C@H]3OC(C)(C)O[C@H]3O[C@H]12)OC (stereo partly drawn) | inactive |
| inactive | 750 µg/mL (≈ 2.73 mM) | inactive | inactive | 750 µg/mL (≈ 2.73 mM) | 3500 µg/mL (≈ 12.8 mM) | 1500 µg/mL (≈ 5.47 mM) | COC(C)(CC1O[C@H]2[C@H]3OC(C)(C)O[C@H]3O[C@H]12)OC (stereo partly drawn) | inactive |
| inactive | 500 µg/mL (≈ 1.38 mM) | 500 µg/mL (≈ 1.38 mM) | inactive | inactive | inactive | 500 µg/mL (≈ 1.38 mM) | COC(C)(CC1O[C@@H]2[C@H]3O[C@@H](C(Cl)(Cl)Cl)O[C@H]3O[C@H]12)OC (stereo partly drawn) | inactive |
| 2500 µg/mL (≈ 6.88 mM) | 500 µg/mL (≈ 1.38 mM) | 250 µg/mL (≈ 0.688 mM) | inactive | inactive | inactive | 500 µg/mL (≈ 1.38 mM) | COC(C)(CC1O[C@H]2[C@H]3O[C@H](C(Cl)(Cl)Cl)O[C@H]3O[C@H]12)OC (stereo partly drawn) | inactive |
| 2500 µg/mL (≈ 16.4 mM) | 500 µg/mL (≈ 3.29 mM) | 500 µg/mL (≈ 3.29 mM) | 2500 µg/mL (≈ 16.4 mM) | 750 µg/mL (≈ 4.93 mM) | inactive | 500 µg/mL (≈ 3.29 mM) | CC(=O)Cc1ccc(C=O)o1 [5-ACETYLMETHYL-FURFURAL] | inactive |
| 2500 µg/mL (≈ 6.88 mM) | 500 µg/mL (≈ 1.38 mM) | 500 µg/mL (≈ 1.38 mM) | inactive | inactive | inactive | 2500 µg/mL (≈ 6.88 mM) | COC(C)(CC1O[C@H]2[C@H]3O[C@@H](C(Cl)(Cl)Cl)O[C@H]3O[C@H]12)OC (stereo partly drawn) | inactive |
